Laboratory results reported in patent US20210309951A1, “USE OF NATURAL FLAVORS AND NATURAL SMOKE FLAVORS TO ENHANCE FUNCTIONALITY OF BUFFERED ORGANIC ACIDS AND METHODS FOR PRODUCING THE SAME” (Kerry Luxembourg S.à.r.I., priority 2020, published 2021).

Target: lysine residues on bovine serum albumin (Bos taurus, UniProt P02769)
Test: Protein crosslinking method (reactivity with lysine residues)
Type: biochemical
Conditions: 30 mM working concentration, 70° C., BSA 10 mg/mL; among standard reference materials
Experimental: Selected active carbonyl compounds (glycolaldehyde, glyoxal, methyl glyoxal, and other carbonyls) were compared for their protein crosslinking capability. Standard reference materials were purchased from Sigma Aldrich [Glycolaldehyde (material no. G6805-5G, batch no. STBG0623V), Glyoxal (material no. 128465-500G, batch no. STBH8032), Methylglyoxal (material no. M0252-250 ml, batch no. BCBT1161), and other carbonyl (material no. F8775-500 ml, batch no. MKCK0272)]. Glutaraldehyde used as a reference material. The protein crosslinking capability was measured as their reactivity with lysine residues on bovine serum albumin (FIG. 6). In the Protein Crosslinking method, experiments were conducted at 30 mM working concentration of individual carbonyls and at 70° C.
Two IsoFin Products were made using two different types of natural liquid smoke flavors (CS9 and MA45GF) and were compared for total carbonyls and protein crosslinking capability. Among the two, the IsoFin B (CS9 based) was made with 50% CS9 (lot #0218938702, Zesti Smoke, Kerry America Region, Monterey, Tenn.) and 50% Homestyle vinegar flavor (IsoAge Technologies, Springfield, Mo.), whereas the IsoFin B (MA45GF based) was made with 9% MA45GF (lot #0214042186, Red Arrow, Kerry America Region, Manitowoc, Wis.)), 1% 300 grain vinegar (lot #09918209), and 90% Homestyle vinegar flavor. […]

Chain of lysine residues on bovine serum albumin (P02769 25-607): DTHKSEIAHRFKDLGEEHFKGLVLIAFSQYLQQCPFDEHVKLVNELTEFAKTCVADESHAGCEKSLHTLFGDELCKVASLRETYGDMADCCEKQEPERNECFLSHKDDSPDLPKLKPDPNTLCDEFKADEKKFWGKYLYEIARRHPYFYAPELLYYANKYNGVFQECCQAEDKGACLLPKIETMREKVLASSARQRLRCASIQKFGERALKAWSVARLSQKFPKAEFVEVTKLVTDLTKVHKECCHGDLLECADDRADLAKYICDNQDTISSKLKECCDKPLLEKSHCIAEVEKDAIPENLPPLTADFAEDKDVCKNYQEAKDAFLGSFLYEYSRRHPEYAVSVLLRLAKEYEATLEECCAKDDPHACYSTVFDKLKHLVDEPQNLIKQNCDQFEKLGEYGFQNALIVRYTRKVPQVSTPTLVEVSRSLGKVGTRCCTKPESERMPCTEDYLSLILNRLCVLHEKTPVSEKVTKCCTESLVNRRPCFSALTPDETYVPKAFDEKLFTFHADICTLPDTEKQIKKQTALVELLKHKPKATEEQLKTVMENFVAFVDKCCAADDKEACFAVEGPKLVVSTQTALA

- reactivity with lysine (protein crosslinking capability): maximum reactivity with lysine
SMILES: O=CCO [glycolaldehyde, Glycolaldehyde]
